Where a name gives a salt, the structure may show the parent alone.

The target of one assay is T1, ENaC (Epithelial Sodium Channel) (Mus musculus, UniProt Q61180+Q9WU38+Q9WU39).
T1 construct: Mouse kidney M−1 cells were cultivated in DMEM; endogenous in cells; host or cells: Mouse kidney M-1 cells, cultivated with dexamethasone on transwell filters
T1 sequence (Q61180 1-699): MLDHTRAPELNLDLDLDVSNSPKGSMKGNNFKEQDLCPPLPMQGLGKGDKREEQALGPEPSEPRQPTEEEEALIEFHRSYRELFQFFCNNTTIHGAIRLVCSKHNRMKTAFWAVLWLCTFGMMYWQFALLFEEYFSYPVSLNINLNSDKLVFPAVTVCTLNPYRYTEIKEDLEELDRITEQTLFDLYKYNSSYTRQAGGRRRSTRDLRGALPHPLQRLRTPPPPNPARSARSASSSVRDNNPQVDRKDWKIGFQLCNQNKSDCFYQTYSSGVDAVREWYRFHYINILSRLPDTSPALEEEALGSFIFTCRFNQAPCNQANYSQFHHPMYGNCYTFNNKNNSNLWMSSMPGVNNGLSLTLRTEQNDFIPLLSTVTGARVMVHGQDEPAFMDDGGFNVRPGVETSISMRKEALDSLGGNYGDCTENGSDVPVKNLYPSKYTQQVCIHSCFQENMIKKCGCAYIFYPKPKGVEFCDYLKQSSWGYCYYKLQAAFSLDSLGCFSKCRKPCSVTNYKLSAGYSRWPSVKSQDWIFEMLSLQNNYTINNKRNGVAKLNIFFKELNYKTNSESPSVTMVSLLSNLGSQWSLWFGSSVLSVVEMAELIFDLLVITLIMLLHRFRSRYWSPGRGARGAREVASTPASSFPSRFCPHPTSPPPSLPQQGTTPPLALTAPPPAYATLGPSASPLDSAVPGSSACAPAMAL
T1 sequence (Q9WU38 1-638): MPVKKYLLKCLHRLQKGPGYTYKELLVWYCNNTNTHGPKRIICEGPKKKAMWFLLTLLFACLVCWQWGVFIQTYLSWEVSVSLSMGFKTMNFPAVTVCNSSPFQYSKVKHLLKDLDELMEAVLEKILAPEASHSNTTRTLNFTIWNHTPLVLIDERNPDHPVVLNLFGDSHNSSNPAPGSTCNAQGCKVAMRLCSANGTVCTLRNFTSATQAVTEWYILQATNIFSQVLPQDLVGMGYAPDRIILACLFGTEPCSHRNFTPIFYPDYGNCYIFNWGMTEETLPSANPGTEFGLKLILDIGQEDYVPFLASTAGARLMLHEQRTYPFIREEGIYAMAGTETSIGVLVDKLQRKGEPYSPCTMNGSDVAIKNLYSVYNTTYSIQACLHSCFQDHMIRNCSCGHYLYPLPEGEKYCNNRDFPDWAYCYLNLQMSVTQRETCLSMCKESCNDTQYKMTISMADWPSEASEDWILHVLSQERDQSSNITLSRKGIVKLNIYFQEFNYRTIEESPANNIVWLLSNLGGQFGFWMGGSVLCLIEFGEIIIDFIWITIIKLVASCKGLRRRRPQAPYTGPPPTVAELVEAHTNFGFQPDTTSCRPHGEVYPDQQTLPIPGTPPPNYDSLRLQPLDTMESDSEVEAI
T1 sequence (Q9WU39 1-655): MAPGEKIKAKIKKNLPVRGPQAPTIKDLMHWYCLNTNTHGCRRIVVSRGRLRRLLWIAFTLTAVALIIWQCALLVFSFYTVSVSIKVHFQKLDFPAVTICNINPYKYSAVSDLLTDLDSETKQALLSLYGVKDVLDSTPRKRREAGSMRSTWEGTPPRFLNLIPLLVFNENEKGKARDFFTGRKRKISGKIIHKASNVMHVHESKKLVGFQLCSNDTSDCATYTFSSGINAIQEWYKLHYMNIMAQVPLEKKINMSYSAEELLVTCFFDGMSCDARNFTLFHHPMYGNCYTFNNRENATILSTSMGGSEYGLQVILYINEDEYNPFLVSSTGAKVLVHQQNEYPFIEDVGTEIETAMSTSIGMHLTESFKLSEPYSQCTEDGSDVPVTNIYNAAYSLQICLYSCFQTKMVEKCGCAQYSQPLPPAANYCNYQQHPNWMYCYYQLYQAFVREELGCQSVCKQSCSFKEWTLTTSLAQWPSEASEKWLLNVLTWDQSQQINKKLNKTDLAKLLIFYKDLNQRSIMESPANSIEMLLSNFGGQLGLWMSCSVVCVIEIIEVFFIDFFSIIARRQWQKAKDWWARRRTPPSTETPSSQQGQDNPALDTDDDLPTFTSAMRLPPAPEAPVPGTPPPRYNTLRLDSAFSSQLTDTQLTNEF
The assay can be described thus: Ussing Chamber assay (short circuit current, amiloride sensitive I_SC). Format: cell-based. The following applies: Ussing chamber, mouse kidney M-1 cells, short circuit current, compound added to the apical solution; read-out: IC50. The procedure, abridged: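 Mouse kidney M-1 cells grown 10–12 days on filters with 5 μM dexamethasone, measured in Caco-2 transport buffer at 37° C under voltage clamp. Compound applied apically at 3 μM or 1-3-10 μM; 3 μM amiloride added at end. Short circuit current inhibition given as percent of amiloride effect or IC50.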
A word on the IC50: it is the concentration needed to halve the response being measured. For `Nc1nc(N)c(C(=O)N[C@H]2CCC[N+](CCCc3ccc(OCC(=O)NCCc4ccncc4)cc3)(CCCc3ccc(OCC(=O)NCCc4ccncc4)cc3)C2)nc1Cl` [Example 6.52], the concentration for half-maximal inhibition (IC50) was 0.004 µM.

As to `CN1CCN(C(=O)COc2ccc(CCC[N+]3(CCCc4ccc(OCC(=O)N5CCN(C)CC5)cc4)CCC[C@H](NC(=O)c4nc(Cl)c(N)nc4N)C3)cc2)CC1` [Example 6.53], the IC50 came out at 0.039 µM. Turning to `Nc1nc(N)c(C(=O)N[C@H]2CCC[N+](CCCc3ccc(OCC(=O)N4CCN(CCO)CC4)cc3)(CCCc3ccc(OCC(=O)N4CCN(CCO)CC4)cc3)C2)nc1Cl` [Example 6.54], the 50% inhibitory concentration (IC50) was 0.098 µM. Same read-out and setting: under `Nc1nc(N)c(C(=O)N[C@H]2CCC[N+](CCCc3ccc(OCC(=O)NCCOCCO)cc3)(CCCc3ccc(OCC(=O)NCCOCCO)cc3)C2)nc1Cl` [Example 6.55] stands 0.025 µM; under `Nc1nc(N)c(C(=O)N[C@H]2CCC[N+](CCCc3ccc(OCC(=O)N4CCC(O)CC4)cc3)(CCCc3ccc(OCC(=O)N4CCC(O)CC4)cc3)C2)nc1Cl` [Example 6.56], 0.092 µM; under `Nc1nc(N)c(C(=O)N[C@H]2CCC[N+](CCCc3ccc(OCC(=O)NCc4cccnc4)cc3)(CCCc3ccc(OCC(=O)NCc4cccnc4)cc3)C2)nc1Cl` [Example 6.57], 0.004 µM. Turning to `Nc1nc(N)c(C(=O)N[C@H]2CCC[N+](CCCc3ccc(OCC(=O)N4CCOCC4)cc3)(CCCc3ccc(OCC(=O)N4CCOCC4)cc3)C2)nc1Cl` [Example 6.58], the 50% inhibitory concentration (IC50) stood at 0.072 µM. Turning to `COCCNC(=O)COc1ccc(CCC[N+]2(CCCc3ccc(OCC(=O)NCCOC)cc3)CCC[C@H](NC(=O)c3nc(Cl)c(N)nc3N)C2)cc1` [Example 6.59], the half-maximal inhibitory concentration (IC50) is 0.012 µM.

For `COCCCNC(=O)COc1ccc(CCC[N+]2(CCCc3ccc(OCC(=O)NCCCOC)cc3)CCC[C@H](NC(=O)c3nc(Cl)c(N)nc3N)C2)cc1` [Example 6.60], the 50% inhibitory concentration (IC50) came out at 0.007 µM. Consider `CN(CCO)C(=O)COc1ccc(CCC[N+]2(CCCc3ccc(OCC(=O)N(C)CCO)cc3)CCC[C@H](NC(=O)c3nc(Cl)c(N)nc3N)C2)cc1` [Example 6.61], for which the 50% inhibitory concentration (IC50) came out at 0.108 µM. Take `Nc1nc(N)c(C(=O)N[C@H]2CCC[N+](CCCc3ccc(OCC(=O)NCc4ccccn4)cc3)(CCCc3ccc(OCC(=O)NCc4ccccn4)cc3)C2)nc1Cl` [Example 6.62]: the IC50 worked out at 0.005 µM. Same read-out and setting: as for `Nc1nc(N)c(C(=O)N[C@H]2CCC[N+](CCCc3ccc(OCC(=O)NCCN4CCOCC4)cc3)(CCCc3ccc(OCC(=O)NCCN4CCOCC4)cc3)C2)nc1Cl` [Example 6.63], the figure is 0.042 µM.

As to `Nc1nc(N)c(C(=O)N[C@H]2CCC[N+](CCCc3ccc(OCC(=O)NCc4ccncc4)cc3)(CCCc3ccc(OCC(=O)NCc4ccncc4)cc3)C2)nc1Cl` [Example 6.64], the concentration for half-maximal inhibition (IC50) was 0.004 µM. Still for that read-out and setting: under `CN(CC#N)C(=O)COc1ccc(CCC[N+]2(CCCc3ccc(OCC(=O)N(C)CC#N)cc3)CCC[C@H](NC(=O)c3nc(Cl)c(N)nc3N)C2)cc1` [Example 6.65] stands 0.094 µM; under `Nc1nc(N)c(C(=O)N[C@H]2CCC[N+](CCCc3ccc(OCC(=O)N(CCO)CCO)cc3)(CCCc3ccc(OCC(=O)N(CCO)CCO)cc3)C2)nc1Cl` [Example 6.66], 0.121 µM; under `CP(C)(=O)CNC(=O)COc1ccc(CCC[N+]2(CCCc3ccc(OCC(=O)NCP(C)(C)=O)cc3)CCC[C@H](NC(=O)c3nc(Cl)c(N)nc3N)C2)cc1` [Example 6.67], 0.131 µM.

Still in this assay, the particulars now being: Ussing chamber, mouse kidney M-1 cells, short circuit current; unit inferred; read-out: IC50.
For the compound `COC(=O)C[C@@H](C[N+](C)(CCCc1ccc(OC)cc1)CCCc1ccc(OC)cc1)NC(=O)c1nc(Cl)c(N)nc1N` [Example 7, {(S)-2-[(3,5-Diamino-6-chloro-pyrazine-2-carbonyl)-amino]-3-methoxycarbonyl-propyl}-bis-[3-(4-methoxy-phenyl)-propyl]-methyl-ammonium chloride], the 50% inhibitory concentration (IC50) is 0.021 µM. Still for that read-out and setting: as for `COC(=O)C[C@H](C[N+](C)(CCCc1ccc(OC)cc1)CCCc1ccc(OC)cc1)NC(=O)c1nc(Cl)c(N)nc1N` [Example 7.1, {(R)-2-[(3,5-Diamino-6-chloro-pyrazine-2-carbonyl)-amino]-3-methoxycarbonyl-propyl}-bis-[3-(4-methoxy-phenyl)-propyl]-methyl-ammonium chloride], the figure is 1.3 µM. Take `COC(=O)COc1ccc(CCC[N+]2(CCCc3ccc(OCC(=O)O)cc3)CCCC(NC(=O)c3nc(Cl)c(N)nc3N)C2)cc1` (stereo not drawn) [Example 8, 1-[3-(4-Carboxymethoxy-phenyl)-propyl]-3-[(3,5-diamino-6-chloro-pyrazine-2-carbonyl)amino]-1-[3-(4-methoxycarbonylmethoxy-phenyl)-propyl]-piperidinium trifluoroacetate]: the 50% inhibitory concentration (IC50) was determined as 0.165 µM. Regarding `COC(=O)COc1ccc(CCC[N+]2(CCCc3ccc(OCC(=O)NCCN(C)C)cc3)CCCC(NC(=O)c3nc(Cl)c(N)nc3N)C2)cc1` (stereo not drawn) [Example 8.1, 3-[(3,5-Diamino-6-chloro-pyrazine-2-carbonyl)-amino]-1-(3-{4-[(2-dimethylaminoethylcarbamoyl)-methoxy]-phenyl}-propyl)-1-[3-(4-methoxycarbonylmethoxy-phenyl)-propyl]-piperidinium chloride hydrochloride], the IC50 turned out to be 0.085 µM.

For `COC(=O)COc1ccc(CCC[N+]2(CCCc3ccc(OCC(=O)NCCOCCOCCO)cc3)CCCC(NC(=O)c3nc(Cl)c(N)nc3N)C2)cc1` (stereo not drawn) [Example 8.2, 3-[(3,5-Diamino-6-chloro-pyrazine-2-carbonyl)-amino]-1-{3-[4-({2-[2-(2-hydroxy-ethoxy)ethoxy]-ethylcarbamoyl}-methoxy)-phenyl]-propyl}-1-[3-(4-methoxycarbonylmethoxy-phenyl)-propyl]-piperidinium chloride], the 50% inhibitory concentration (IC50) was 0.37 µM.

For the compound `Nc1nc(N)c(C(=O)NC2CCC[N+](CCCc3ccc(OCCOCCOCCO)cc3)(CCCc3ccc(OCCOCCOCCO)cc3)C2)nc1Cl` (stereo not drawn) [Example 9, 3-[(3,5-Diamino-6-chloro-pyrazine-2-carbonyl)-amino]-1,1-bis-[3-(4-{2-[2-(2-hydroxyethoxy)-ethoxy]-ethoxy}-phenyl)-propyl]-piperidinium chloride], the IC50 worked out at 0.095 µM. As to `Nc1nc(N)c(C(=O)NC2CCC[N+](CCCc3ccc(OCCOCCOCCOCCOCCO)cc3)(CCCc3ccc(OCCOCCOCCOCCOCCO)cc3)C2)nc1Cl` (stereo not drawn) [Example 9.1, 3-[(3,5-Diamino-6-chloro-pyrazine-2-carbonyl)-amino]-1,1-bis-(3-{4-[2-(2-{2-[2-(2-hydroxy-ethoxy)-ethoxy]-ethoxy}-ethoxy)-ethoxy]-phenyl}-propyl)-piperidinium chloride], the IC50 came out at 0.111 µM.

Staying with this assay, now noted: Ussing chamber, mouse kidney M-1 cells, short circuit current; value printed in the example text with μM; read-out: IC50.
On to `COc1ccc(CCC[N+](C)(CCCc2ccc(OC)cc2)C[C@H](CC(=O)O)NC(=O)c2nc(Cl)c(N)nc2N)cc1` [Example 7.2, {(S)-3-Carboxy-2-[(3,5-diamino-6-chloro-pyrazine-2-carbonyl)-amino]-propyl}-bis-[3-(4-methoxy-phenyl)-propyl]-methyl-ammonium], for which the half-maximal inhibitory concentration (IC50) was 1.38 µM.
